Where two headings read alike, the source gives them in different places.
What was measured:
[1] = biological target: human cathepsin L (Homo sapiens, UniProt P07711); experiment: Inhibitory activity against human cathepsin L (FRET, Z-Phe-Arg-AMC substrate); format: biochemical; conditions: pH 5.5, 25° C.
Description: To determine the inhibitory activity of the compound against human cathepsin L (CatL): the enzyme level inhibitory activity against cathepsin L was determined by fluorescence resonance energy transfer (FRET) technique. In a 96-well plate, 10 μL buffer (50 mM CH3COONa, pH 5.5, 1 mM DTT, 2 mM EDTA) was added to each well, while 0.2 μL of compound (final concentrations were 100 nM, 10 nM, 1 nM, 0.1 nM and 0.01 nM, respectively) and 10 μL cathepsin L were added, and incubated at 25° C. for 15 min. Then 10 μL fluorescent substrate (Z-Phe-Arg-AMC, final concentration was 20 μM) diluted with buffer was added. The fluorescence parameters were determined by Tecan Infinite 200pro fluorescence spectrophotometer. The excitation wavelength and emission wavelength were 360 nm and 465 nm respectively, kept at 25° C., and the data were read after 30 min. A negative control was used, in which no compound was added to the control, and the rest was the same.

[2] = biological target: T1, 2019-nCoV 3CL protease (Severe acute respiratory syndrome coronavirus 2, UniProt P0DTD1); experiment: Inhibitory activity against 3CL protease of 2019 novel coronavirus (FRET); format: biochemical; conditions: for IC50: FRET, 37° C., substrate 20 μM
T1 construct: against 3CL protease of 2019 novel coronavirus (2019-nCoV 3CL^pro)
Description: To determine the inhibitory activity of the compound against 3CL protease of 2019 novel coronavirus (2019-nCoV 3CL^pro): the enzyme level inhibitory activity of inhibitors against 3CL protease was determined by fluorescence resonance energy transfer (FRET) technology. In a 96-well plate, 27.5 μL of buffer (20 mM Tris, 100 mM NaCl, 1 mM EDTA, pH 7.4) was added to each well, 2.5 μL compounds ([…], respectively) and 5 μL […] (final concentration was 3 μM) were added at the same time. Incubated at 37° C. for 15 min. Then 15 μL fluorescent substrate diluted with buffer (final concentration was 20 μM) was added. The fluorescence parameters were determined by Ge n5 fluorescence spectrophotometer. The excitation wavelength and emission wavelength were 340 nm and 490 nm respectively, kept at 37° C., and the data were read after 10 min. A negative control was used, in which no compound was added to the control, and the rest was the same.

[3] = system: 2019 novel coronavirus (2019-nCov); experiment: Inhibitory activity on replication of 2019 novel coronavirus (cytopathic effect, MTS, RD cells); format: cell-based; conditions: for virus inhibitory activity (in words): CQ as positive control, different concentration gradients; for EC50: Severe acute respiratory syndrome coronavirus 2, RD, read-out: EC50, inhibition of 2019-nCoV virus replication
[4] = Toxicity test in SD rats with repeated intravenous administration; format: in vivo
Excerpt: The purpose of this experiment is to observe the potential toxicity of SD rats after intravenous DC406009 for 7 consecutive days and to determine the possible toxic target organs. To provide non-toxic dose and/or toxic dose for the subsequent toxicity test design and clinical trial protocol design. To assess the level of drug exposure in vivo, a toxicokinetic evaluation is accompanied.
36 SD rats were divided into 8 groups (3 in toxicity test group/gender/group, a total of 5 groups; 1 in toxic satellite group/gender/group, 3 groups), intravenous injection of solvent (5% DMSO/5% EtOH/40% PEG300/50% NaCl), 0.9% sodium chloride injection and DC406009 (5, 15, 30 mg/kg/day), once a day for 7 consecutive days, all animals were euthanized on Day 8. During the test, the following indicators were evaluated: toxicology (only samples were collected), clinical observation, body weight, food consumption, clinical pathology (hematology, hemagglutination, plasma biochemistry) and anatomical macroscopic morphological observation.

[5] = system: 2019 novel coronavirus (2019-nCov); conditions: stated for positive control; read-out: EC50, inhibition of 2019-nCoV virus replication (positive compound CQ); cited from earlier work

Chain of human cathepsin L (P07711 114-333): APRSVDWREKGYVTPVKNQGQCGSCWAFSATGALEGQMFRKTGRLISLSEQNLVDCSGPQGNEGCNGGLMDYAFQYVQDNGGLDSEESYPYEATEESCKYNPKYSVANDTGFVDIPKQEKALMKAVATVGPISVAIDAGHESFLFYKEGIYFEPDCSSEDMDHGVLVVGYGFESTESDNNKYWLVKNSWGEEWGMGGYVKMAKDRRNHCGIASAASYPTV

Row | Structure (SMILES) | IC50 [1] | IC50 [2] | other results
1 | O=C(NCc1ccccc1)C(=O)[C@H](C[C@@H]1CCCNC1=O)NC(=O)[C@H](Cc1ccc(F)c(F)c1)NC(=O)c1cc2ccccc2o1 [Example A290] | 0.47 ± 0.06 nM | – | –
2 | O=C(NC1CC1)C(=O)[C@H](C[C@@H]1CCCNC1=O)NC(=O)[C@H](Cc1ccc(F)cc1)NC(=O)c1cc2ccccc2o1 [Example A310, N—((S)-1-(((S)-4-(cyclopropylamino)-3,4-dione-1-((S)-2-oxopiperidin-3-yl)but-2-yl)amino)-3-(4-fluorophenyl)-1-oxopropan-2-yl)-benzofuran-2-carboxamide] | 0.57 ± 0.01 nM | – | –
3 | O=C(NCc1ccccc1)C(=O)[C@H](C[C@@H]1CCNC1=O)NC(=O)[C@H](CC1CCCCC1)NC(=O)c1ccc2ccccc2n1 [Example A42, N—((S)-1-(((S)-4-(benzylamino)-3,4-dione-1-((S)-2-oxopyrrolidin-3-yl)but-2-yl)amino)-3-cyclohexyl-1-oxopropan-2-yl)-quinoline-2-carboxamide] | – | 3 µM | virus inhibitory activity (in words) [3]: excellent virus inhibitory activity; virus inhibitory activity (in words) ([3]; listed as 4001): better than that of positive control CQ; EC50 [3]: 0.581 µM
4 | O=C(NCc1ccccc1)C(=O)[C@H](C[C@@H]1CCCNC1=O)NC(=O)[C@H](Cc1cccc(F)c1)NC(=O)c1cc2ccccc2o1 [Example A284] | 0.45 ± 0.01 nM | – | –
5 | O=C(NC1CC1)C(=O)[C@H](C[C@@H]1CCCNC1=O)NC(=O)[C@H](CC1CCCCC1)NC(=O)c1cc2ccccc2o1 [Example A309, N—((S)-1-(((S)-4-(cyclopropylamino)-3,4-dione-1-((S)-2-oxopiperidin-3-yl)but-2-yl)amino)-3-cyclohexyl-1-oxopropan-2-yl)-benzofuran-2-carboxamide] | 0.63 ± 0.08 nM | – | –
6 | CC(C)C[C@H](NC(=O)c1cc2ccccc2[nH]1)C(=O)N[C@@H](C[C@@H]1CCNC1=O)C(=O)C(=O)NCc1ccccc1 [Example A90, N—((S)-1-(((S)-4-(benzylamino)-3,4-dione-1-((S)-2-oxopyrrolidin-3-yl)but-2-yl)amino)-4-methyl-1-oxopentan-2-yl)-1H-indole-2-carboxamide] | – | 25.2 µM | –
7 | O=C(NCc1ccccc1)C(=O)[C@H](C[C@@H]1CCNC1=O)NC(=O)[C@H](Cc1cccc(F)c1)NC(=O)c1ccc2ccccc2n1 [Example A305, N—((S)-1-(((S)-4-(benzylamino)-3,4-dione-1-((S)-2-oxopyrrolidin-3-yl)but-2-yl)amino)-3-(3-fluorophenyl)-1-oxopropan-2-yl)-quinoline-2-carboxamide] | – | 8.5 µM | –
8 | O=C(NC1CCCCC1)C(=O)[C@H](C[C@@H]1CCNC1=O)NC(=O)[C@H](Cc1ccccc1)NC(=O)c1cc2ccccc2o1 [Example A56] | – | 24.1 µM | –
9 | O=C(NCc1ccccc1)C(=O)[C@H](C[C@@H]1CCCNC1=O)NC(=O)[C@H](Cc1ccc(F)cc1)NC(=O)c1cc2ccccc2o1 [Example A289] | 0.66 ± 0.008 nM | – | inhibition at 1 µM ([2]; compound 1 uM, read-out: 1 uM inhibition rate): 13.5%; inhibition at 10 µM ([2]; compound 10 uM, read-out: 10 uM inhibition rate): 40.8%; virus inhibitory activity (in words) [3]: excellent virus inhibitory activity; virus inhibitory activity (in words) ([3]; listed as 6009): better than that of positive control CQ; EC50 [3]: 0.296 µM; tolerability (in words) ([4]; SD rats, 5, 15, 30 mg/kg/day intravenously once a day for 7 consecutive days): animals can tolerate; MTD at 7 days ([4]; both sexes, SD, rat, in vivo, iv): > 30 mg/kg/day
10 | Cn1c(C(=O)N[C@@H](CC2CCCCC2)C(=O)N[C@@H](C[C@@H]2CCCNC2=O)C(=O)C(=O)NC2CCCCC2)cc2ccccc21 [Example A29, N—((S)-3-cyclohexyl-1-(((S)-4-(cyclohexylamino)-3,4-dione-1-((S)-2-oxopiperidin-3-yl)but-2-yl)amino)-3-cyclohexyl-1-oxopropan-2-yl)-1-methyl-1H-indole-2-carboxamide] | – | 9.8 µM | –
11 | O=C(NCc1ccc(-c2ccccc2)cc1)C(=O)[C@H](C[C@@H]1CCCNC1=O)NC(=O)[C@H](CC1CCCCC1)NC(=O)c1cc2ccccc2o1 [Example A275] | – | 5.8 µM | –
12 | Cn1c(C(=O)N[C@@H](CC2CCCCC2)C(=O)N[C@@H](C[C@@H]2CCCNC2=O)C(=O)C(=O)NC(C)(C)C)cc2ccccc21 [Example A28, N—((S)-1-(((S)-4-(tert-butylamino)-3,4-dione-1-((S)-2-oxopiperidin-3-yl)but-2-yl)amino)-3-cyclohexyl-1-oxopropan-2-yl)-1-methyl-1H-indole-2-carboxamide] | – | 15.2 µM | –
13 | O=C(NCc1ccccc1)C(=O)[C@H](C[C@@H]1CCCNC1=O)NC(=O)[C@H](CC1CCCCC1)NC(=O)c1cccnn1 [Example A268, N—((S)-1-(((S)-4-(benzylamino)-3,4-dione-1-((S)-2-oxopiperidin-3-yl)but-2-yl)amino)-3-cyclohexyl-1-oxopropan-2-yl)-pyridazine-2-carboxamide] | – | 5.6 µM | –
14 | CCN(CC)CCCC(C)Nc1ccnc2cc(Cl)ccc12 (stereo not shown) [CQ] | – | – | EC50 [5]: 1.13 µM
15 | O=C(NCc1ccccc1)C(=O)[C@H](C[C@@H]1CCNC1=O)NC(=O)[C@H](Cc1ccc(F)cc1)NC(=O)c1ccc2ccccc2n1 [Example A306, N—((S)-1-(((S)-4-(benzylamino)-3,4-dione-1-((S)-2-oxopyrrolidin-3-yl)but-2-yl)amino)-3-(4-fluorophenyl)-1-oxopropan-2-yl)-quinoline-2-carboxamide] | – | 6.7 µM | –
16 | O=C(NCc1ccccc1)C(=O)[C@H](C[C@@H]1CCCNC1=O)NC(=O)[C@H](CC1CCCCC1)NC(=O)c1cc2ccccc2o1 [Example A13, N—((S)-1-(((S)-4-(benzylamino)-3,4-dione-1-((S)-2-oxopiperidin-3-yl)but-2-yl)amino)-3-cyclohexyl-1-oxopropan-2-yl)-benzofuran-2-carboxamide] | 1.36 ± 0.04 nM | 2.4 µM | virus inhibitory activity (in words) [3]: excellent virus inhibitory activity; EC50 [3]: 9.24 µM
17 | O=C(NC1CCCCC1)C(=O)[C@H](C[C@@H]1CCCNC1=O)NC(=O)[C@H](CC1CCCCC1)NC(=O)c1cc2cccc(Br)c2o1 [Example A257, N—((S)-1-(((S)-4-(cyclohexylamino)-3,4-dione-1-((S)-2-oxopiperidin-3-yl)but-2-yl)amino)-3-cyclohexyl-1-oxopropan-2-yl)-6-bromo-benzofuran-2-carboxamide] | – | 5.2 µM | –
18 | O=C(NCc1ccccc1)C(=O)[C@H](C[C@@H]1CCNC1=O)NC(=O)[C@H](CC1CCCCC1)NC(=O)c1cc2ccccc2s1 [Example A17, N—((S)-1-(((S)-4-(benzylamino)-3,4-dione-1-((S)-2-oxopyrrolidin-3-yl)but-2-yl)amino)-3-cyclohexyl-1-oxopropan-2-yl)-benzothiophene-2-carboxamide] | – | 12.5 µM | –
19 | O=C(NCc1ccccc1)C(=O)[C@H](C[C@@H]1CCCNC1=O)NC(=O)[C@H](CC1CCCCC1)NC(=O)c1cc2ccccc2[nH]1 [Example A5, N—((S)-1-(((S)-4-(benzylamino)-3,4-dione-1-((S)-2-oxopiperidin-3-yl)but-2-yl)amino)-3-cyclohexyl-1-oxopropan-2-yl)-1H-indole-2-carboxamide] | 0.45 ± 0.02 nM | – | –
20 | O=C(NCc1ccccc1)C(=O)[C@H](C[C@@H]1CCNC1=O)NC(=O)[C@H](Cc1ccccc1)NC(=O)c1cn2cc(Br)ccc2n1 [Example A156] | – | 4.7 µM | –
21 | COc1cc(OC)c2cc(C(=O)N[C@@H](Cc3ccccc3)C(=O)N[C@@H](C[C@@H]3CCNC3=O)C(=O)C(=O)NC(C)(C)C)[nH]c2c1 [Example A221, N—((S)-1-(((S)-4-(tert-butylamino)-3,4-dione-1-((S)-2-oxopyrrolidin-3-yl)but-2-yl)amino)-1-oxo-3-phenylpropan-2-yl)-4,6-dimethoxy-1H-indole-2-carboxamide] | – | 5.8 µM | –
